Key:
Test in all cases: ATP level assay (CellTiter-Glo), percent of control
Assay type in all cases: cell-based
HeLa (cervical cancer) = details: two hour incubation; for activity at 100 µM: Homo sapiens, HeLa, 2 h, compound alone, control DMSO, read-out: POC (percent of control) HeLa
Description: (§1) In the present method, the method of using the available assays has been modified to measure the short-term effect of compounds of interest on ATP levels in the cells. […] In the modified method, the control and test cells are initially treated with the metabolic inhibitor for a period of about thirty minutes to about four hours. Typically, the treatment of the cells with the metabolic inhibitor is for one hour prior to adding the compound to be screened for anti-cancer properties. However, simultaneous treatment with the metabolic inhibitor and the compound being screened should provide satisfactory results. […] ATP synthesis in cells occurs over multiple biochemical pathways. These pathways are very responsive to metabolic inhibitors and/or changes in available nutrients. By incorporating a metabolic inhibitor which is known to impact certain pathways, the disclosed method provides for measurement of a compound's direct effects on the remaining metabolic pathways available for ATP synthesis in the cell.
(§2) Following treatment of the control and test cells with the metabolic inhibitor, the method calls for addition of the compound to be screened for anti-cancer properties to the cells. Following addition of the compound of interest, the assay is allowed to continue for about one hour to about four hours or depending on the luminescing agent up to eighteen hours. However, approximately 60 minutes will be sufficient to determine the ATP inhibiting effect of the compound to be screened on the cells. Following completion of the selected time period, the ATP level within the cell is determined. ATP levels can be determined by luminescence according to standard measuring procedures, i.e. the luminescence level of the assay from the living cells treated with the two component composition is compared to the luminescence level of the assay from the living cells without the two component composition, i.e., the control experiment. Thus, the ATP levels are determined without killing the cells during the incubation of the cells in the presence of the compound of interest. As a result, the measured reduction in ATP level corresponds directly to the inhibition of the metabolic pathways uninhibited by the metabolic blocker.
(§3) A wide variety of ATP luminescing detection reagents are available commercially. So long as the reagent produces a luminescence in the presence of ATP, the reagent will be suitable for use in the present method. Suitable reagents include but are not limited to any ATP dependent luciferase such as but not limited to firefly luciferase, other modified luciferase based reagents, i.e. luciferase derivatives. According to the rapid method for determining the anti-cancer activity of a compound, a sample of living cells is distributed across a number of testing wells. Typically, 96-well plates are used; however, the number of wells is not critical to the current method. When using a 96-well plate the number of living cells will commonly be about 20,000. The sample wells contain a cell growth medium to promote cell health and growth and an additive to prevent bacterial contamination of the wells. One common example of the cell growth medium is DMEM with 10% FBS as described above. One example of the additive to prevent bacterial contamination is a solution of penicillin G and streptomycin referred to commonly as Pen-Strep. The Pen-Strep solution typically contains 5000 units of penicillin G and 5000 micrograms of streptomycin. Thus, the rapid determination of anti-cancer compounds can be carried out using the following method. • The desired number of cells are distributed in a 96-well plate containing 100 μL DMEM plus 10% FBS with optional Pen-Strep. • After 24 hours, cells are treated with the compound of interest or a 5% solution of dimethyl sulfoxide (DMSO) in water as a control. • The time period for exposure to the compound of interest and the DMSO control will vary depending on the luminescing detection reagent. […]

PC3 (prostate cancer) = details: two hour incubation; for activity at 100 µM: 2 h, compound alone, control DMSO, read-out: POC (percent of control) PC3
Description: as §1, §2, §3

[1] = system: MCF10A (non-cancerous breast); details: two hour incubation; for activity at 100 µM: Homo sapiens, MCF-10A, 2 h, compound alone, control DMSO, read-out: POC (percent of control) MCF10A
Description: as §1, §2, §3

MCF7 (breast cancer) = details: two hour incubation; for activity at 100 µM: Homo sapiens, MCF7, 2 h, compound alone, control DMSO, read-out: POC (percent of control) MCF7
Description: as §1, §2, §3

H293 (kidney cancer) = details: two hour incubation; for activity at 100 µM: 2 h, compound alone, control DMSO, read-out: POC (percent of control) H293
Description: as §1, §2, §3

HDF (normal cells) = details: two hour incubation; for activity at 100 µM: 2 h, compound alone, control DMSO, read-out: POC (percent of control) HDF
Description: as §1, §2, §3

SkBr3 (breast cancer) = details: two hour incubation; for activity at 100 µM: Homo sapiens, SK-BR-3, 2 h, compound alone, control DMSO, read-out: POC (percent of control) SkBr3
Description: as §1, §2, §3

T47D (breast cancer) = details: two hour incubation; for activity at 100 µM: Homo sapiens, T47D, 2 h, compound alone, control DMSO, read-out: POC (percent of control) T47D
Description: as §1, §2, §3

MDA-MB (breast cancer) = details: two hour incubation; for activity at 100 µM: 2 h, compound alone, control DMSO, read-out: POC (percent of control) MDA-MB
Description: as §1, §2, §3

NCI-H196 (lung cancer) = details: two hour incubation; for activity at 100 µM: NCI-H196, 2 h, compound alone, control DMSO, read-out: POC (percent of control) NCI-H196
Description: as §1, §2, §3

[2] = system: BxPC3 (pancreatic cancer); details: two hour incubation; for activity at 100 µM: Homo sapiens, BXPC-3, 2 h, compound alone, control DMSO, read-out: POC (percent of control) BxPC3
Description: as §1, §2, §3

[3] = compound 100 uM + 2DG (about 10-20 mM)
[4] = compound 100 uM + rotenone (approximately 1.25 μM)

| Compound | activity at 100 µM (HeLa (cervical cancer)) [%] | POC (percent of control) HeLa (HeLa (cervical cancer); [3]) | POC (percent of control) HeLa (HeLa (cervical cancer); [4]) | activity at 100 µM (PC3 (prostate cancer)) [%] | POC (percent of control) PC3 (PC3 (prostate cancer); [3]) | POC (percent of control) PC3 (PC3 (prostate cancer); [4]) | activity at 100 µM [1] [%] | POC (percent of control) MCF10A [1, 3] | POC (percent of control) MCF10A [1, 4] | activity at 100 µM (MCF7 (breast cancer)) [%] | POC (percent of control) MCF7 (MCF7 (breast cancer); [3]) | POC (percent of control) MCF7 (MCF7 (breast cancer); [4]) | activity at 100 µM (H293 (kidney cancer)) [%] | POC (percent of control) H293 (H293 (kidney cancer); [3]) | POC (percent of control) H293 (H293 (kidney cancer); [4]) | activity at 100 µM (HDF (normal cells)) [%] | POC (percent of control) HDF (HDF (normal cells); [3]) | POC (percent of control) HDF (HDF (normal cells); [4]) | activity at 100 µM (SkBr3 (breast cancer)) [%] | POC (percent of control) SkBr3 (SkBr3 (breast cancer); [3]) | further results |
| --- | --- | --- | --- | --- | --- | --- | --- | --- | --- | --- | --- | --- | --- | --- | --- | --- | --- | --- | --- | --- | --- |
| Cc1ccc(S(=O)(=O)NCc2c[nH]c3ccccc23)cc1 [Compound 1, N-[(1H-indol-3-yl)methyl]-4-methylbenzenesulfonamide] | 95 | 66.3% of control | 78.7% of control | 91.7 | 57.3% of control | 72.6% of control | 73.3 | 86.7% of control | 69% of control | 103 | 86.8% of control | 79.6% of control | 92.8 | 48.2% of control | 69% of control | 98.5 | 85% of control | 107.7% of control | 97.7 | 72.9% of control | POC (percent of control) SkBr3 (SkBr3 (breast cancer); [4]): 91.2% of control; activity at 100 µM (T47D (breast cancer)): 53.2%; POC (percent of control) T47D (T47D (breast cancer); [3]): 43.2% of control; POC (percent of control) T47D (T47D (breast cancer); [4]): 76.6% of control; activity at 100 µM (MDA-MB (breast cancer)): 78.1%; POC (percent of control) MDA-MB (MDA-MB (breast cancer); [3]): 62% of control; POC (percent of control) MDA-MB (MDA-MB (breast cancer); [4]): 80.5% of control; activity at 100 µM (NCI-H196 (lung cancer)): 90.8%; POC (percent of control) NCI-H196 (NCI-H196 (lung cancer); [3]): 68.8% of control; POC (percent of control) NCI-H196 (NCI-H196 (lung cancer); [4]): 83.2% of control; activity at 100 µM [2]: 97.1%; POC (percent of control) BxPC3 [2, 4]: 86.6% of control |
| O=S(=O)(NCc1c[nH]c2ccccc12)c1ccccc1 [Compound 3, N-[(1H-indol-3-yl)methyl]benzenesulfonamide] | 99.2 | 67.6% of control | 85.5% of control | 85 | 59.4% of control | 65.1% of control | 62.5 | 72.7% of control | 110.5% of control | 105 | 74.5% of control | 97.3% of control | 74.3 | 42.8% of control | 69.3% of control | 84.5 | 72.7% of control | 91.9% of control | 72.8 | 79.4% of control | POC (percent of control) SkBr3 (SkBr3 (breast cancer); [4]): 97.1% of control; activity at 100 µM (T47D (breast cancer)): 34.9%; POC (percent of control) T47D (T47D (breast cancer); [3]): 37.1% of control; POC (percent of control) T47D (T47D (breast cancer); [4]): 58.7% of control; activity at 100 µM (MDA-MB (breast cancer)): 92.4%; POC (percent of control) MDA-MB (MDA-MB (breast cancer); [3]): 81.8% of control; POC (percent of control) MDA-MB (MDA-MB (breast cancer); [4]): 102.7% of control; activity at 100 µM (NCI-H196 (lung cancer)): 89.6%; POC (percent of control) NCI-H196 (NCI-H196 (lung cancer); [3]): 55% of control; POC (percent of control) NCI-H196 (NCI-H196 (lung cancer); [4]): 89.2% of control; activity at 100 µM [2]: 96.8%; POC (percent of control) BxPC3 [2, 4]: 84.5% of control |
| CS(=O)(=O)NCc1c[nH]c2ccccc12 [Compound 26, N-(1H-indol-3-ylmethyl)methanesulfonamide] | 90.4 | 106.9% of control | 96.3% of control | 92.3 | 111.5% of control | 89.6% of control | 106 | 99.9% of control | 81% of control | 114 | 95.9% of control | 119.8% of control | 110 | 72.9% of control | 72% of control | 106 | 91.1% of control | 86.9% of control | 109 | 95.7% of control | POC (percent of control) SkBr3 (SkBr3 (breast cancer); [4]): 97.1% of control; activity at 100 µM (T47D (breast cancer)): 93.3%; POC (percent of control) T47D (T47D (breast cancer); [3]): 101% of control; POC (percent of control) T47D (T47D (breast cancer); [4]): 90.8% of control; activity at 100 µM (MDA-MB (breast cancer)): 90.2%; POC (percent of control) MDA-MB (MDA-MB (breast cancer); [3]): 87.6% of control; POC (percent of control) MDA-MB (MDA-MB (breast cancer); [4]): 79.2% of control; activity at 100 µM (NCI-H196 (lung cancer)): 220%; POC (percent of control) NCI-H196 (NCI-H196 (lung cancer); [3]): 91.3% of control; POC (percent of control) NCI-H196 (NCI-H196 (lung cancer); [4]): 80.8% of control; activity at 100 µM [2]: 99.1%; POC (percent of control) BxPC3 [2, 3]: 86.6% of control; POC (percent of control) BxPC3 [2, 4]: 88.8% of control |
| O=[N+]([O-])c1cccc(S(=O)(=O)NCc2c[nH]c3ccccc23)c1 [Compound 25, N-(1H-indol-3-ylmethyl)-3-nitrobenzenesulfonamide] | 89.4 | 90.8% of control | 95.6% of control | 60.2 | 96.8% of control | 80.1% of control | 95.7 | 98.3% of control | 80.4% of control | 112 | 92.9% of control | 104.2% of control | 99.7 | 79.6% of control | 68.8% of control | 79.2 | 93.6% of control | 95.5% of control | 112 | 88.2% of control | POC (percent of control) SkBr3 (SkBr3 (breast cancer); [4]): 104.1% of control; activity at 100 µM (T47D (breast cancer)): 94.4%; POC (percent of control) T47D (T47D (breast cancer); [3]): 88.9% of control; POC (percent of control) T47D (T47D (breast cancer); [4]): 86.7% of control; activity at 100 µM (MDA-MB (breast cancer)): 103%; POC (percent of control) MDA-MB (MDA-MB (breast cancer); [3]): 86.2% of control; POC (percent of control) MDA-MB (MDA-MB (breast cancer); [4]): 88.8% of control; activity at 100 µM (NCI-H196 (lung cancer)): 305%; POC (percent of control) NCI-H196 (NCI-H196 (lung cancer); [3]): 92.9% of control; POC (percent of control) NCI-H196 (NCI-H196 (lung cancer); [4]): 83% of control; activity at 100 µM [2]: 85.1%; POC (percent of control) BxPC3 [2, 3]: 71.5% of control; POC (percent of control) BxPC3 [2, 4]: 78.2% of control |

Reference: patent US20230266302A1, “SYNTHESIS AND USE OF N-BENZYL SULFONAMIDES” (THE UNIVERSITY OF TULSA, priority 2020, published 2023)
